Measurements: patent US20230180758A1, “SUBSTITUTED PYRROLINE-2-ONES AND THEIR USE AS HERBICIDES” (Bayer Aktiengesellschaft, priority 2020, published 2023)

Columns and labels:
Format in all cases: in vivo
[1] = test system: Lolium rigidum; test: Post-emergence herbicidal effect against LOLRI; settings: 80 g/ha, visual assessment after about 3 weeks
Method: (§1) 1. Post-Emergence Herbicidal Effect and Crop Plant Compatibility
(§2) Seeds of monocotyledonous and dicotyledonous weed and crop plants are laid out in sandy loam soil in wood-fibre pots, covered with soil and cultivated in a greenhouse under good growth conditions. 2 to 3 weeks after sowing, the test plants are treated at the one-leaf stage. The compounds of the invention, formulated in the form of wettable powders (WP) or as emulsion concentrates (EC), are then sprayed onto the green parts of the plants as aqueous suspension or emulsion at a water application rate equating to 600 to 800 l/ha with addition of 0.2% wetting agent. After the test plants have been left to stand in the greenhouse under optimal growth conditions for about 3 weeks, the action of the preparations is assessed visually in comparison to untreated controls (herbicidal action in percent (%): 100% activity=the plants have died, 0% activity=like control plants).

[2] = test system: Setaria viridis; test: Post-emergence herbicidal effect against SETVI; settings: visual assessment after about 3 weeks
Method: as §1, §2

[3] = test system: Echinochloa crus-galli; test: Post-emergence herbicidal effect against ECHCG; settings: visual assessment after about 3 weeks
Method: as §1, §2

[4] = test system: Hordeum murinum; test: Post-emergence herbicidal effect against HORMU; settings: 80 g/ha, visual assessment after about 3 weeks
Method: as §1, §2

[5] = test system: Digitaria sanguinalis; test: Post-emergence herbicidal effect against DIGSA; settings: visual assessment after about 3 weeks, 100% = plants have died
Method: as §1, §2

[6] = test system: Avena fatua; test: Post-emergence herbicidal effect against AVEFA; settings: 80 g/ha, visual assessment after about 3 weeks, 100% = plants have died
Method: as §1, §2

[7] = test system: Alopecurus myosuroides; test: Post-emergence herbicidal effect against ALOMY; settings: visual assessment after about 3 weeks, 100% = plants have died
Method: as §1, §2

[8] = test system: Lolium rigidum; test: Pre-emergence herbicidal effect against LOLRI; settings: scored visually after 3 weeks
Source text: (§3) 2. Pre-Emergence Herbicidal Effect and Crop Plant Compatibility
(§4) Seeds of monocotyledonous and dicotyledonous weed plants and crop plants are laid out in sandy loam soil in wood-fibre pots and covered with soil. The compounds of the invention, formulated in the form of wettable powders (WP) or as emulsion concentrates (EC), are then applied to the surface of the covering soil as aqueous suspension or emulsion at a water application rate equating to 600 to 800 L/ha with addition of 0.2% wetting agent.
(§5) After the treatment, the pots are placed in a greenhouse and kept under good growth conditions for the trial plants. The damage to the test plants is scored visually after a test period of 3 weeks by comparison with untreated controls (herbicidal activity in percent (%): 100% activity=the plants have died, 0% activity=like control plants).

[9] = test system: Alopecurus myosuroides; test: Pre-emergence herbicidal effect against ALOMY; settings: 320 g/ha, scored visually after 3 weeks
Source text: as §3, §4, §5

[10] = test system: Avena fatua; test: Pre-emergence herbicidal effect against AVEFA; settings: 320 g/ha, scored visually after 3 weeks
Source text: as §3, §4, §5

[11] = test system: Echinochloa crus-galli; test: Pre-emergence herbicidal effect against ECHCG; settings: 320 g/ha, scored visually after 3 weeks
Source text: as §3, §4, §5

SMILES	Post-emergence action against LOLRI [1]	Post-emergence action against SETVI ([2]; 20 g/ha)	Post-emergence action against SETVI ([2]; 80 g/ha)	Post-emergence action against ECHCG ([3]; 80 g/ha)	Post-emergence action against HORMU [4]	Post-emergence action against DIGSA ([5]; 20 g/ha)	Post-emergence action against DIGSA ([5]; 80 g/ha)	Post-emergence action against AVEFA [6]	Post-emergence action against ALOMY ([7]; 20 g/ha)	Post-emergence action against ALOMY ([7]; 80 g/ha)	Pre-emergence action against LOLRI ([8]; 80 g/ha)	Pre-emergence action against LOLRI ([8]; 320 g/ha)	Pre-emergence action against ALOMY [9]	Pre-emergence action against AVEFA [10]	Pre-emergence action against ECHCG [11]	Post-emergence action against ECHCG ([3]; 20 g/ha)
COc1cc(C)cc(C)c1C1=C(O)C2(COC3(CCOCC3)OC2)NC1=O [Example 1-1]	100%	100%	100%	100%	100%	100%	100%	100%	100%	100%	–	–	–	–	–	–
COc1cc(Cl)cc(C)c1C1=C(O)C2(COC3(CCOCC3)OC2)NC1=O [Example 1-4, 3-(4-chloro-2-methoxy-6-methylphenyl)-4-hydroxy-7,11,14-trioxa-1-azadispiro[4.2.5^8.2^5]pentadec-3-en-2-one]	100%	80%	90%	80%	–	80%	80%	100%	90%	100%	–	–	–	–	–	–
COc1cc(C)cc(C)c1C1=C([O-])C2(COC3(CCOCC3)OC2)NC1=O.[Na+] [Example 2-1]	100%	90%	90%	100%	90%	90%	90%	100%	90%	100%	–	–	–	–	–	–
COc1cc(Cl)cc(C)c1C1=C(O)C2(COC3(CCOCC3)OC2)NC1=O [Example 2-4, sodium 3-(4-chloro-2-methoxy-6-methylphenyl)-2-oxo-7,11,14-trioxa-1-azadispiro[4.2.5^8.2^5]pentadec-3-en-4-olate]	90%	80%	80%	80%	–	90%	90%	100%	80%	100%	–	–	–	–	–	–
CCC(=O)OC1=C(c2c(C)cc(C)cc2OC)C(=O)NC12COC1(CCOCC1)OC2 [Example 3-1]	100%	80%	90%	100%	90%	90%	100%	90%	90%	100%	–	–	–	–	–	–
CCC(=O)OC1=C(c2c(C)cc(Cl)cc2OC)C(=O)NC12COC1(CCOCC1)OC2 [Example 3-4, 3-(4-chloro-2-methoxy-6-methylphenyl)-2-oxo-7,11,14-trioxa-1-azadispiro[4.2.5^8.2^5]pentadec-3-en-4-yl propionate]	100%	80%	90%	100%	–	100%	100%	100%	90%	100%	–	–	–	–	–	–
CCOC(=O)OC1=C(c2c(C)cc(C)cc2OC)C(=O)NC12COC1(CCOCC1)OC2 [Example 4-1]	100%	90%	100%	100%	100%	90%	90%	100%	100%	100%	–	–	–	–	–	–
CCOC(=O)OC1=C(c2c(C)cc(Cl)cc2OC)C(=O)NC12COC1(CCOCC1)OC2 [Example 4-4, 3-(4-chloro-2-methoxy-6-methylphenyl)-2-oxo-7,11,14-trioxa-1-azadispiro[4.2.5^8.2^5]pentadec-3-en-4-yl ethyl carbonate]	90%	80%	90%	100%	–	90%	90%	80%	90%	100%	–	–	–	–	–	–
COc1cc(C)cc(C)c1C1=C(O)C2(COC3(CCOCC3)OC2)N(C)C1=O [Example 5-1]	90%	90%	90%	100%	–	–	–	–	80%	90%	100%	100%	90%	100%	100%	100%
COc1cc(C)cc(C)c1C1=C([O-])C2(COC3(CCOCC3)OC2)N(C)C1=O.[Na+] [Example 6-1]	90%	90%	90%	100%	–	–	–	–	–	90%	100%	100%	100%	90%	100%	90%
CCOC(=O)OC1=C(c2c(C)cc(C)cc2OC)C(=O)N(C)C12COC1(CCOCC1)OC2 [Example 8-1]	90%	80%	100%	90%	–	–	–	–	–	–	100%	100%	100%	100%	100%	80%
